Source: publication PMC2880636 (Journal of medicinal chemistry, 2009)

Experiments:
morphine antinociception = test: warm-water tail immersion test, blockade of morphine antinociception; settings: sc, 5 min before morphine 10 mg/kg sc; 56 °C; tested 20 min later
MOR = MOR (Mus musculus, UniProt P42866); test: 35S-GTP[γS]-binding functional assay in MOR expressing CHO cells; assay type: biochemical; settings: Emax relative to full agonist DAMGO (3 μM)
antinociception = test: warm-water tail immersion test, agonist; settings: doses up to 100 mg/kg
W318A mutant MOR = W318A mutant MOR (Mus musculus, UniProt P42866, W318A); assay type: binding
μ opioid receptor (MOR) = μ opioid receptor (MOR) (Mus musculus, UniProt P42866); test: competitive radioligand binding, [3H]naloxone, monocloned receptor in CHO cells
Chain of μ opioid receptor (MOR) (P42866 whole entry): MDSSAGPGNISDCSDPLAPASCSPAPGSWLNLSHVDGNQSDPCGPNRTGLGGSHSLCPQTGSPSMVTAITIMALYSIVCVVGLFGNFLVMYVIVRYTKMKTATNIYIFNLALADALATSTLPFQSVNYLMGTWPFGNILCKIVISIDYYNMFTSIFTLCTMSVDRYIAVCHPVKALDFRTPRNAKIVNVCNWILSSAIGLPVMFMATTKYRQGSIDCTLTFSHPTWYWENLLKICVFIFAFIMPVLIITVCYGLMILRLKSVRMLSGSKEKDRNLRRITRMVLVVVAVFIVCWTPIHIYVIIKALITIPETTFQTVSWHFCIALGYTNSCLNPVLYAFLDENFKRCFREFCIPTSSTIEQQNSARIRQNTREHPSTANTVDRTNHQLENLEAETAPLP

Chain of MOR (P42866 whole entry): as above
Chain of W318A mutant MOR (P42866 whole entry W318A): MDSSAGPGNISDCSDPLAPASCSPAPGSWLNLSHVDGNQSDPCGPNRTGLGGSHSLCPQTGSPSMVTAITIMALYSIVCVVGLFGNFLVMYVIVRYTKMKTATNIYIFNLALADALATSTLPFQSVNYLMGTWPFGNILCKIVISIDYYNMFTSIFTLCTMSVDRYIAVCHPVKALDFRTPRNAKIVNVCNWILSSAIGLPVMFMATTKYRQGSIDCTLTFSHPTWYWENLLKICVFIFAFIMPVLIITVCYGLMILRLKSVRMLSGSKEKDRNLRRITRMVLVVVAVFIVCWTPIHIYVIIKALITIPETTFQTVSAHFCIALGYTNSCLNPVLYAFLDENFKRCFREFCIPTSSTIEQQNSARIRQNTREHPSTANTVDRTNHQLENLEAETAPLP

Row | SMILES | AD50 value (mg/kg (95% CL)) for blockade of morphine antinociception (morphine antinociception) | also measured
1 | O=C(N[C@H]1CC[C@@]2(O)[C@H]3Cc4ccc(O)c5c4[C@@]2(CCN3CC2CC2)[C@H]1O5)c1cnc2ccccc2c1 [Compound 13, 17-Cyclopropylmethyl-3,14β-dihydroxy-4,5α-epoxy-6α-[(3′-quinolyl)acetamido]morphinan] | 4.45 (2.41–8.15) mg/kg | 
2 | O=C(N[C@H]1CC[C@@]2(O)[C@H]3Cc4ccc(O)c5c4[C@@]2(CCN3CC2CC2)[C@H]1O5)c1cc2ccccc2cn1 [Compound 9, 17-Cyclopropylmethyl-3,14β-dihydroxy-4,5α-epoxy-6α-[(3′-isoquinolyl)acetamido]morphinan] | 0.45 (0.27–0.78) mg/kg | % max of DAMGO (MOR): approximately 20%; agonist effect in tail immersion test (antinociception): neither of these ligands produced any agonist effect; IC50 (W318A mutant MOR): > 1000 nM; selectivity for the MOR over the DOR (μ opioid receptor (MOR)): over 200 fold; selectivity for the MOR over the KOR (μ opioid receptor (MOR)): approximately 50 fold
3 | C=CCN1CC[C@]23c4c5ccc(O)c4O[C@H]2C(=O)CC[C@@]3(O)[C@H]1C5 [naloxone, reference compound] | 0.05 (0.03–0.09) mg/kg | 
4 | O=C(N[C@@H]1CC[C@@]2(O)[C@H]3Cc4ccc(O)c5c4[C@@]2(CCN3CC2CC2)[C@H]1O5)c1cc2ccccc2cn1 [Compound 10] | inactive | 
5 | O=C(N[C@@H]1CC[C@@]2(O)[C@H]3Cc4ccc(O)c5c4[C@@]2(CCN3CC2CC2)[C@H]1O5)c1cnc2ccccc2c1 [Compound 14, 17-Cyclopropylmethyl-3,14β-dihydroxy-4,5α-epoxy-6β-[(3′-quinolyl)acetamido]morphinan] | 42.55 (23.67–76.51) mg/kg | 
